Data from patent US11319321B2, “[1,2,4]triazolo[1,5-a]pyrimidine compounds as PDE2 inhibitors” (Janssen Pharmaceutica NV, priority 2016, dated 2022).
Where two headings read alike, the source gives them in different places.

Legend:
[1] = target: T1, Human recombinant PDE2A (hPDE2A) (Homo sapiens, UniProt O00408); test: In vitro assay PDE2A (SPA, 3H-cGMP); assay type: biochemical
T1 construct: made in house; host or cells: Sf9 insect cells (baculovirus)
Method: Human recombinant PDE2A (hPDE2A) was expressed in Sf9 cells using a recombinant rPDE10A baculovirus construct. Cells were harvested after 48 h of infection and the hPDE2A protein was purified by metal chelate chromatography on Ni-sepharose 6FF. Tested compounds were dissolved and diluted in 100% DMSO to a concentration 100 fold of the final concentration in the assay. Compound dilutions (0.4 μl) were added in 384 well plates to 20 μl of incubation buffer (50 mM Tris pH 7.8, 8.3 mM MgCl2, 1.7 mM EGTA). 10 μl of hPDE2A enzyme in incubation buffer was added and the reaction was started by addition of 10 μl substrate to a final concentration of 10 μM cGMP and 0.01 μCi ^3H-cGMP. The reaction was incubated for 45 minutes at room temperature. […] After sedimentation of the beads during 30 minutes the radioactivity was measured in a Perkin Elmer Topcount scintillation counter and results were expressed as cpm. For blanc values the enzyme was omitted from the reaction and replaced by incubation buffer. Control values were obtained by addition of a final concentration of 1% DMSO instead of compound.

[2] = system: hPDE3B; test: In vitro assay PDE3 (SPA, 3H-cAMP); assay type: biochemical, human; conditions: 0.4 μM cAMP substrate; for hPDE3B Emax: in % (unit assumed)
[3] = target: hPDE10A2 (Homo sapiens, UniProt Q9Y233); test: biochemical; conditions: 60 nM cAMP substrate; for IC50: human clone, read-out: hPDE10A2 or rPDE10A2 pIC50 (converted); for Emax: read-out: hPDE10A2 or rPDE10A2 Emax, human clone
Sequence of hPDE10A2 (Q9Y233 267-1055): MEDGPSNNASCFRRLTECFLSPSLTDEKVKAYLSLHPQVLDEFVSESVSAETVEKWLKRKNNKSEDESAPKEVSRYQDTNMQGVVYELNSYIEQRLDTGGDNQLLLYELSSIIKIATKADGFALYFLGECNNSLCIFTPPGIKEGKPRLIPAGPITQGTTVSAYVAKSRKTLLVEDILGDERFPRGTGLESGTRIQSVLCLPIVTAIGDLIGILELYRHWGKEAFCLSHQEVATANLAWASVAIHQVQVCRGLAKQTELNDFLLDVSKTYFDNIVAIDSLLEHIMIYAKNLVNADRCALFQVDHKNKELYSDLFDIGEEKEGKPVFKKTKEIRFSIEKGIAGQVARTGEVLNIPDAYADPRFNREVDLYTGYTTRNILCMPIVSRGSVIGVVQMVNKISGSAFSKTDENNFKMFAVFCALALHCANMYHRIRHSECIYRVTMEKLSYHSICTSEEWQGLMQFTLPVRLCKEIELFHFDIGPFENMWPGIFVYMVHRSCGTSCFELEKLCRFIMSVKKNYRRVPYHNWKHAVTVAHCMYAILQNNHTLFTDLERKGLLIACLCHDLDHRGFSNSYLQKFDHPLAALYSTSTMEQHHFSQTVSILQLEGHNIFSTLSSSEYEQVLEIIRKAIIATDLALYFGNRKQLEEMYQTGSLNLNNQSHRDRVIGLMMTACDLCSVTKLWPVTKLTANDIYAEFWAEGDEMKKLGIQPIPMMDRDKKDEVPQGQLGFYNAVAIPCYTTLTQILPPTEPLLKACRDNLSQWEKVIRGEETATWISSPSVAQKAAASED
Method: Rat recombinant PDE10A (rPDE10A2) was expressed in Sf9 cells using a recombinant rPDE10A baculovirus construct. Cells were harvested after 48 h of infection and the rPDE10A protein was purified by metal chelate chromatography on Ni-sepharose 6FF. Tested compounds were dissolved and diluted in 100% DMSO to a concentration 100 fold of the final concentration in the assay. Human recombinant PDE10A ([…]) was expressed in Sf9 cells using a recombinant hPDE10A baculovirus that was made and amplified in house. Cells were harvested after 72 h of infection and the hPDE10A protein was purified by metal chelate chromatography on Ni-sepharose. Compound dilutions (0.4 μl) were added in 384 well plates to 20 μl of incubation buffer (50 mM Tris pH 7.8, 8.3 mM MgCl2, 1.7 mM EGTA). 10 μl of rPDE10A or hPDE10A enzyme in incubation buffer was added and the reaction was started by addition of 10 μl substrate to a final concentration of 60 nM cAMP and […] ^3H-cAMP. The reaction was incubated for 60 minutes at room temperature. After incubation, the reaction was stopped with 20 μl of stop solution consisting of 17.8 mg/ml PDE SPA (scintillation proximity assay) beads. After sedimentation of the beads during 30 minutes the radioactivity was measured in a Perkin Elmer Topcount scintillation counter and results were expressed as cpm. For blanc values the enzyme was omitted from the reaction and replaced by incubation buffer. Control values were obtained by addition of a final concentration of 1% DMSO instead of compound. A best fit curve is fitted by a minimum sum of squares method to the plot of % of control value substracted with blanc value versus compound concentration and the half maximal inhibitory concentration (IC50) value is derived from this curve.

[4] = 10 μM cGMP substrate, read-out: hPDE2A pIC50 (converted)
[5] = hPDE2A pIC50, 10 μM cGMP substrate

T1 sequence (O00408 whole entry): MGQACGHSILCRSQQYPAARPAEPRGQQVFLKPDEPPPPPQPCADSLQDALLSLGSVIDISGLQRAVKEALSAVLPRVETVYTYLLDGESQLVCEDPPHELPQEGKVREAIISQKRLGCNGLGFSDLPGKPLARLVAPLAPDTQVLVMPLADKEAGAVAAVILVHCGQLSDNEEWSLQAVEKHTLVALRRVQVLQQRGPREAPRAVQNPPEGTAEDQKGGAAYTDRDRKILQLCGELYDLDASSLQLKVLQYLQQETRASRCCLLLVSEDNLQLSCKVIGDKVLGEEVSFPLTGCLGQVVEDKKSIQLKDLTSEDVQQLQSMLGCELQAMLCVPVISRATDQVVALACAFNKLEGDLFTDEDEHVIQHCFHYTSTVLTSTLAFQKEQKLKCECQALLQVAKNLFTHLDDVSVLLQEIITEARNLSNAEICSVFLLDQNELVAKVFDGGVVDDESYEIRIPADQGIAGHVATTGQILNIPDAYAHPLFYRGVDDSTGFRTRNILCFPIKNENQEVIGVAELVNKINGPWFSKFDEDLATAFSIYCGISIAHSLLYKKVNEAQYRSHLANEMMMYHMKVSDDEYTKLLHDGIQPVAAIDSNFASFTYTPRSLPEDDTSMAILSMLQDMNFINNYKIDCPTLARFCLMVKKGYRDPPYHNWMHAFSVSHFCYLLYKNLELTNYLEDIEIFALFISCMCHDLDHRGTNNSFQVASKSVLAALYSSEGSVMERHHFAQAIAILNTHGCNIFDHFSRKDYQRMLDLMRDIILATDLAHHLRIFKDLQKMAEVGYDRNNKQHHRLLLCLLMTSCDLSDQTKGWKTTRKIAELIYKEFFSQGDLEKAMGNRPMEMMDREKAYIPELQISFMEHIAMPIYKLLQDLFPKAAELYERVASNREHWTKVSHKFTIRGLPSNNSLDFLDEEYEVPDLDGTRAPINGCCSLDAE

Row | Compound | Emax ([1]; 10 μM cGMP substrate) [%] | IC50 [1, 4] [µM] | hPDE3B pIC50 [2] | hPDE3B Emax [2] | IC50 [3] [µM] | Emax [3] [%] | IC50 [1] [µM] | IC50 [1, 5] [µM]
1 | C[C@@H]1CCN(Cc2ccccc2)C[C@H]1c1cc(C(F)F)nc2ncnn12 [Compound 20] | 97 | 0.457 | <5 | 23 | > 10 | 26 | – | –
2 | C[C@@H]1CCN(Cc2ccc(C#N)cc2)C[C@H]1c1cc(C(F)F)nc2ncnn12 [Compound 21] | 97 | – | <5 | 24 | ~10 | 48 | 0.468 | –
3 | C[C@@H]1CCN(Cc2cccc(OC(F)F)c2)C[C@H]1c1cc(C(F)F)nc2ncnn12 [Compound 22] | 95 | – | <5 | 42 | 7.76 | 61 | 0.562 | –
4 | C[C@@H]1CCN(Cc2ccc(OC(F)(F)F)cc2)C[C@H]1c1cc(C(F)F)nc2ncnn12 [Compound 23] | 97 | 0.575 | 5.14 | 49 | 6.92 | 62 | – | –
5 | C[C@@H]1CCN(Cc2cccc(C#N)n2)C[C@H]1c1cc(C(F)F)nc2ncnn12 [Compound 25] | 92 | – | <5 | 12 | > 10 | 28 | – | 1.02
6 | C[C@@H]1CCN(CC2CCOCC2)C[C@H]1c1cc(C(F)F)nc2ncnn12.Cl [Compound 26] | 27 | – | <5 | 12 | > 10 | 12 | – | ~3.09
7 | C[C@H]1CCN(CC2CCOCC2)C[C@@H]1c1cc(C(F)F)nc2ncnn12.Cl [Compound 27] | 20 | – | <5 | 3 | > 10 | 11 | – | ~4.9
8 | CC(C)CN1CC[C@@H](C)[C@H](c2cc(C(F)F)nc3ncnn23)C1 [Compound 29] | 3 | – | <5 | −14 | > 10 | 3 | – | ~8.71
9 | C[C@@H]1CCN(Cc2ccc(F)c(C(F)(F)F)c2)C[C@H]1c1cc(C(F)F)nc2ncnn12 [Compound 30] | 99 | – | <5 | 21 | 7.94 | 55 | 0.49 | –
10 | C[C@@H]1CCN(Cc2cn(C)c3ccccc23)C[C@H]1c1cc(C(F)F)nc2ncnn12.Cl [Compound 35] | 102 | – | <5 | 22 | 7.59 | 53 | – | 0.0479
11 | C[C@@H]1CCN(Cc2cc3ccccc3o2)C[C@H]1c1cc(C(F)F)nc2ncnn12.Cl [Compound 38] | 88 | – | <5 | 28 | 4.68 | 69 | – | 0.162
12 | C[C@@H]1CCN(Cc2ccc(F)c(F)c2)C[C@H]1c1cc(C(F)F)nc2ncnn12.Cl [Compound 40] | 42 | 1.12 | <5 | 10 | > 10 | 35 | – | –
13 | C[C@H]1CCN(Cc2ccc(F)c(F)c2)C[C@@H]1c1cc(C(F)F)nc2ncnn12.Cl [Compound 41] | 33 | 1.95 | <5 | 20 | > 10 | 15 | – | –
14 | C[C@@H]1CCN(Cc2ccc(F)c(F)c2)C[C@@H]1c1cc(C(F)F)nc2ncnn12 [Compound 42] | 22 | 3.39 | <5 | 19 | > 10 | 45 | – | –
15 | Cc1csc(CN2CC[C@@H](C)[C@H](c3cc(C(F)F)nc4ncnn34)C2)c1.Cl [Compound 43] | 77 | – | <5 | 0 | 6.92 | 44 | – | 0.347
16 | COc1ccc(CN2CC[C@@H](C)[C@H](c3cc(C(F)F)nc4ncnn34)C2)c(OC)c1.Cl [Compound 45] | 49 | – | <5 | 6 | > 10 | 37 | – | 0.955
17 | COc1ccc(CN2CC[C@H](C)[C@@H](c3cc(C(F)F)nc4ncnn34)C2)c(OC)c1.Cl [Compound 46] | 9 | – | <5 | 17 | > 10 | -6 | – | 7.24
18 | COc1ccc(CN2CC[C@@H](C)[C@@H](c3cc(C(F)F)nc4ncnn34)C2)c(OC)c1 [Compound 47] | 25 | – | <5 | 27 | > 10 | 37 | – | ~3.47
19 | C[C@@H]1CCN(Cc2nn(C)c3ccccc23)C[C@H]1c1cc(C(F)F)nc2ncnn12 [Compound 48] | 96 | – | <5 | 23 | > 10 | 37 | – | 0.977
20 | Cc1cc(CN2CCC(C)C(F)(c3cc(C(F)F)nc4ncnn34)C2)cc(C)n1 (stereo not drawn) [Compound 51] | 91 | – | 5.11 | 67 | > 10 | 28 | – | 2.95
21 | Cc1nn(C)cc1CN1CC[C@@H](C)[C@H](c2cc(C(F)F)nc3ncnn23)C1.Cl [Compound 52] | 31 | – | <5 | 1 | > 10 | 9 | – | ~2.34
22 | C[C@H]1CCN(Cc2cc3ccccc3o2)C[C@@H]1c1cc(C(F)F)nc2ncnn12.Cl [Compound 55] | 25 | – | <5 | 40 | > 10 | 12 | – | 2.24
